{"source": "patent US8445502B2", "about": "“Pharmaceutical formulations comprising salts of a protein kinase inhibitor and methods of using same” (Astex Pharmaceuticals, Inc., priority 2007, dated 2013)", "key": {"[1]": {"test_system": "γ-H2AX levels in OVCAR-3 (ovarian carcinoma) cells", "experiment": "DNA damage by γ-H2AX levels", "type": "cell-based", "conditions": "single agent 10 μM; control 0.5% DMSO medium", "protocol": "OVCAR-3 (ovarian carcinoma) cells were treated with MP470 (10 μM), MP470.HCl (10 μM), and/or topotecan (10 μM)."}, "[2]": {"test_system": "Rad51 in A549 non-small cell lung cancer cells", "experiment": "Rad51 protein level by Western blot in cells", "type": "cell-based", "conditions": "6.1 μM carboplatin, 24 hrs", "protocol": "Rad51 protein levels were also determined in A549 non-small cell lung cancer cells using combinations with DNA damaging agents. Cells were treated for 24 hrs with 6.1 μM (IC30 of carboplatin alone) carboplatin in combination with 0.71 μM or 3.82 μM MP470.HCl. Protein lysates were isolated from treated and non-treated cells, separated by SDS-PAGE, and transferred to nitrocellulose. […] The increase in Rad51 due to carboplatin treatment was reduced by 26% when treated in combination with 0.71 μM MP470.HCl and by 42% with 3.82 μM MP470.HCl"}, "[3]": {"test_system": "A549 NSCLC cells", "experiment": "Sensitization of NSCLC cells to carboplatin", "type": "cell-based", "conditions": "A549, single agent", "protocol": "(§1) The non-small cell lung cancer cell lines A549 and NCI-H647 were used for these experiments. […] The IC50 concentrations observed for carboplatin against both of these cell lines was consistent with this.\n(§2) Two sub-IC50 doses of MP470.HCl were tested in combination with carboplatin to evaluate possible synergism between these agents and consequently a lower IC50 value for carboplatin in each of the cell lines.\n(§3) MP470.HCl was able to dramatically decrease the IC50 of carboplatin in these cells."}, "[4]": {"test_system": "NCI-H647 NSCLC cells", "experiment": "Sensitization of NSCLC cells to carboplatin", "type": "cell-based", "conditions": "NCI-H647, single agent", "protocol": "as §1, §2, §3"}, "[5]": {"test_system": "A549 lung cancer cells", "type": "in vivo", "conditions": "Day 26, 10 mg/kg IP in sterile saline, qd×5×3 wk (vehicle 43)", "protocol": "(§4) MP470 and MP470 HCl were tested against different tumor types in athymic nude mice as summarized below (Table 8). Various formulations and routes were evaluated. HT-29 colorectal cancer cells and SB-CL2 melanoma cells were implanted subcutaneously, while A549 lung cancer cells, MiaPaCa-2 pancreatic cancer cells, TT medullary thyroid cancer cells, and OVCAR-3 ovarian cancer cells were implanted […] in the hind flank of mice. All animals were allowed to develop medium-sized (80-125 mg) tumors, before initiation of dosing. Tumor volume and mouse bodyweight were followed over the course of the study.\nA549 Lung Cancer Model—In 40 nude mice implanted intradermally with A549 lung cancer cells, animals were dosed with vehicle orally, MP470 in 100% corn oil orally, or 5-FU in sterile saline IP. […] […] While MP470 reduced tumor growth rates, treatment of these cells with 5-FU reduced the overall tumor growth rate per day further to 19.5 mm3/d on Day 26.\nTo determine whether MP470.HCl in combination with carboplatin increased the anti-tumor activity in xenograft tumors growing in vivo, the agents were administered alone and in combination and tumor growth was monitored. MP470.HCl (50 mg/kg) was combined with carboplatin (30 mg/kg) alone or carboplatin with taxol (20 mg/kg)."}, "[6]": {"test_system": "OVCAR-3 ovarian cancer cells", "experiment": "OVCAR-3 ovarian cancer tumor model in nude mice", "type": "in vivo", "protocol": "as §4\nOVCAR-3 Ovarian Cancer Model—Forty-two nude mice were implanted subcutaneously with OVCAR-3 ovarian carcinoma, the hydrochloride salt of MP470 (MP470.HCl) was formulated in 100% corn oil and delivered orally. MP470.HCl, cisplatin, and irinotecan were administered to animals alone or in combination. When administered alone, MP470.HCl was given qd at 100 or 200 mg/kg, irinotecan was given q3d at 20 mg/kg, and cisplatin was given q7d at 5 mg/kg. In combination studies, 100 mg/kg MP470.HCl was given qd and combined with 20 mg/kg irinotecan given q3d or 5 mg/kg cisplatin given q7d. One animal in the 200 mg/kg MP470.HCl group died on Day 1, while five animals in the MP470.HCl/cisplatin combination group died (one on Day 5, Day 6, Day 7, Day, 20, and Day 27). Treatment with each individual agent (200 mg/kg MP470.HCl, 46.2 mm3/d; 20 mg/kg irinotecan, 38.53 mm3/d; 5 mg/kg cisplatin, 33.8 mm3/d) reduced the tumor growth rate below that of vehicle-treated mice (78.04 mm3/d). […] In contrast, when MP470.HCl and cisplatin were used in combination, the tumor growth rate was reduced to 10.22 mm3/d. However, the 100 mg/kg dose of MP470.HCl in combination with cisplatin caused enhanced toxicity and most animals in this group died during the 21-day treatment period. The enhanced toxicity was related to the level of the dose used, so a subsequent study was conducted using half the dose, 50 mg/kg/day as described below."}, "[7]": {"conditions": "rat, in vivo, po", "protocol": "Twenty-four rats were placed into four groups each consisting of three animals per sex. The animals were weighed the day before dosing, as well as just prior to dosing.\nAfter intravenous infusion of MP470.HCl at 5 mg/kg, average MP470 peak plasma concentrations of 454.3 ng/mL for males and 370.7 ng/mL for females were attained at 0.083 hours (5 minutes), the first sampling point postdose. After oral administration of non-micronized MP470.HCl, peak plasma concentrations of MP470 were attained at 0.5-12 hours for Group 2 (25 mg/kg) and 4-12 hours for Group 3 (100 mg/kg, suspension). The extent of systemic exposure of rats to MP470, characterized by AUCO-∞, was approximately 3.8-fold and 2.9-fold higher in females than in males for Groups 2 and 3, respectively. Average AUCO-∞ values were higher at 100 mg/kg than at 25 mg/kg and the increases in AUCO-∞ were greater than dose-proportional.\nAfter oral administration of micronized MP470.HCl (Group 4), peak plasma concentrations of MP470 were attained at 4-12 hours. The extent of systemic exposure of rats to MP470, characterized by AUCO-∞, was approximately 3.4-fold higher in females than in males for Group 4. The extent of exposure of rats to MP470, characterized by AUCO-∞, was 1.7-fold (males) and 1.4-fold (females) higher for non-micronized MP470 HCl (Group 3) than for micronized MP470 HCl (Group 4)."}, "[8]": {"experiment": "Solubility of MP470 and its salts (Table 2)", "type": "physicochemical", "conditions": "water"}, "[9]": {"test_system": "DMS-114 SCLC cells", "experiment": "Sensitization of SCLC cells to etoposide", "type": "cell-based", "conditions": "Homo sapiens; DMS-114, single agent", "protocol": "(§5) Therefore, to determine if MP470 would increase sensitivity to etoposide treatment, SCLC cells were treated with the agents individually and in combination. […] Two sub-IC50 doses of MP470.HCl were tested in combination with etoposide to evaluate possible synergism and a resulting lower IC50 value for etoposide in each of the cell lines."}, "[10]": {"test_system": "DMS-153 SCLC cells", "experiment": "Sensitization of SCLC cells to etoposide", "type": "cell-based", "conditions": "Homo sapiens; DMS-153, single agent", "protocol": "as §5"}}, "note": "Like-named read-outs stand apart in the source and are kept apart here."}
{"smiles": "CC[C@@]1(O)C(=O)OCc2c1cc1n(c2=O)Cc2cc3c(CN(C)C)c(O)ccc3nc2-1", "note": "[topotecan, reference compound]", "values": [{"measurement": "Increase in DNA damage (γ-H2AX) over control", "setting": "[1]", "value": 65, "unit": "%"}]}
{"smiles": "N.N.O=C([O-])C1(C(=O)[O-])CCC1.[Pt+2]", "note": "[Carboplatin, reference compound]", "values": [{"measurement": "increase of Rad51 levels over non-treatment levels", "setting": "[2]", "value": 12, "unit": "fold"}, {"measurement": "IC50", "setting": "[3]", "value": 20.1, "unit": "µM"}, {"measurement": "IC50", "setting": "[4]", "value": 173, "unit": "µM"}]}
{"smiles": "O=c1[nH]cc(F)c(=O)[nH]1", "note": "[5-FU, 5-fluorouracil, reference compound]", "values": [{"measurement": "tumor growth rate", "setting": "[5]", "value": 19.5, "unit": "mm3/d"}]}
{"smiles": "CCc1c2c(nc3ccc(OC(=O)N4CCC(N5CCCCC5)CC4)cc13)-c1cc3c(c(=O)n1C2)COC(=O)[C@]3(O)CC", "note": "[irinotecan, reference compound]", "values": [{"measurement": "tumor growth rate", "setting": "[6]; 20 mg/kg q3d (vehicle 78.04)", "value": 38.53, "unit": "mm3/d"}]}
{"smiles": "Cl.S=C(NCc1ccc2c(c1)OCO2)N1CCN(c2ncnc3c2oc2ccccc23)CC1", "note": "[micronized MP470.HCl]", "values": [{"measurement": "AUC0-∞ in females relative to males", "setting": "[7]; 100 mg/kg", "value": "approximately 3.4 fold"}, {"measurement": "time of peak plasma concentration", "setting": "[7]; 100 mg/kg", "value": "4 to 12", "unit": "h"}]}
{"smiles": "N.N.[Cl][Pt][Cl]", "note": "[cisplatin, reference compound]", "values": [{"measurement": "tumor growth rate", "setting": "[6]; 5 mg/kg q7d (vehicle 78.04)", "value": 33.8, "unit": "mm3/d"}]}
{"smiles": "S=C(NCc1ccc2c(c1)OCO2)N1CCN(c2ncnc3c2oc2ccccc23)CC1", "note": "[MP470 Esylate]", "values": [{"measurement": "Solubility in water", "setting": "[8]", "value": 5.89, "unit": "µg/mL"}]}
{"smiles": "Cl.S=C(NCc1ccc2c(c1)OCO2)N1CCN(c2ncnc3c2oc2ccccc23)CC1", "note": "[non-micronized MP470.HCl]", "values": [{"measurement": "AUC0-∞ in females relative to males", "setting": "[7]; 25 mg/kg", "value": "approximately 3.8 fold"}, {"measurement": "time of peak plasma concentration", "setting": "[7]; 25 mg/kg", "value": "0.5 to 12", "unit": "h"}, {"measurement": "AUC0-∞ in females relative to males", "setting": "[7]; 100 mg/kg", "value": "~2.9", "unit": "fold"}, {"measurement": "time of peak plasma concentration", "setting": "[7]; 100 mg/kg", "value": "4 to 12", "unit": "h"}]}
{"smiles": "COc1cc([C@@H]2c3cc4c(cc3[C@@H](O[C@@H]3O[C@@H]5CO[C@@H](C)O[C@H]5[C@H](O)[C@H]3O)[C@H]3COC(=O)[C@H]23)OCO4)cc(OC)c1O", "note": "[Etoposide, reference compound]", "values": [{"measurement": "IC50", "setting": "[9]", "value": 0.92, "unit": "µM"}, {"measurement": "IC50", "setting": "[10]", "value": 0.29, "unit": "µM"}]}
